How the values were obtained:
TRPV1 receptor = molecular target: T1, TRPV1 receptor (Rattus norvegicus, UniProt O35433); experiment: Test of inhibition of the current induced with capsaicin on rat DRGs (whole-cell patch-clamp); assay type: cell-based; settings: capsaicin response 300 nM, rat DRG neurons
T1 construct: The neurons of the DRG naturally express the TRPV1 receptor; endogenous in cells; host or cells: primary culture of newborn rat dorsal root ganglion neurons
Protocol: Test of Inhibition of the Current Induced with Capsaicin on rat DRGs
• Primary culture of rat dorsal root ganglion (DRG) cells:
The neurons of the DRG naturally express the TRPV1 receptor.
The primary cultures of newborn rat DRGs are prepared using 1-day-old rats. Briefly, after dissection, the ganglions are trypsinized and the cells dissociated by mechanical trituration. The cells are resuspended in an Eagle basal culture medium containing 10% fetal calf serum, 25 mM KCl, 2 mM glutamine, 100 μg/ml gentamicin and 50 ng/ml of NGF, and then deposited on glass slides coated with laminin (0.25×10^6 cells per slide), which are then placed in Corning 12-well dishes. The cells are incubated at 37° C. in a humidified atmosphere containing 5% CO2 and 95% air. Cytosine β-D-arabinoside (1 μM) is added 48 hours after culturing, to prevent the growth of non-neuronal cells. The slides are transferred into experimental chambers for the patch-clamp studies after 7-10 days of culturing.
The measuring chambers (volume 800 μl) containing the cell preparation are placed on the platform of an inverted microscope (Olympus IMT2) equipped with Hoffman optics (Modulation Contrast, New York) and observed at a magnification of 400×. The chambers are continuously gravity-influxed (2.5 ml/min) using a solution distributor accepting 8 inlets and whose sole outlet, consisting of a polyethylene tube (aperture 500 μm), is placed less than 3 mm from the cell under study. The “whole cell” configuration of the patch-clamp technique was used. […] The overall currents (membrane potential set at […]) are recorded with an Axopatch 1 D amplifier (Axon Instruments, Foster city, Calif.), connected to a PC running the Pclamp8 software (Axon Instrument). The current plots are recorded on paper and simultaneously digitized (sampling frequency 15 to 25 Hz) and acquired on the hard drive of the PC.
The application of a 300 nM capsaicin solution induces on the DRG cells (voltage set at −70 mV) an entering cationic current. […] The results are expressed as a percentage of inhibition of the control capsaicin response.

TRPV1 receptors = molecular target: T2, TRPV1 receptors (Mus musculus, UniProt Q704Y3); experiment: Test of mouse corneal irritation (capsaicin ocular instillation); assay type: in vivo; settings: 1 mg/kg po, pretreatment time t = 1 h, n = 8, 2 μl of 160 μM capsaicin
T2 construct: from tissue; host or cells: living mouse, cornea (capsaicin ocular instillation)
Protocol: Test of Mouse Corneal Irritation
The irritant nature of capsaicin is readily assessed on the cornea since this organ is one of the organs most densely innervated with C fibres. In this context, from preliminary experiments, the application of a very small amount of capsaicin (2 μl at a concentration of 160 μM) to the surface of the cornea of an animal leads to a certain number of stereotypic behavioral traits associated with irritation, which are easy to detect. Among these, the following are noted: blinking of the eye, rubbing of the instilled eye with the ipsilateral front paw, rubbing of the face with both front paws, scratching of the ipsilateral face with the hind paw. […] This aspect is moreover also normal. […]
In practice, the test product is administered orally and, with a delay (pretreatment time: t) that depends on the pharmacokinetic data, the animal receives an ocular instillation of 2 μl of a 160 μM capsaicin solution prepared as indicated above. During a 2-minute observation following the instillation, the number of times the instilled eye is rubbed with the ipsilateral front paw is recorded.
For a given animal, the percentage of protection is calculated as follows: P=100−((number of scratching actions observed/mean number of scratching actions for the group treated with the solvent)×100) […]

T2 sequence (Q704Y3 whole entry): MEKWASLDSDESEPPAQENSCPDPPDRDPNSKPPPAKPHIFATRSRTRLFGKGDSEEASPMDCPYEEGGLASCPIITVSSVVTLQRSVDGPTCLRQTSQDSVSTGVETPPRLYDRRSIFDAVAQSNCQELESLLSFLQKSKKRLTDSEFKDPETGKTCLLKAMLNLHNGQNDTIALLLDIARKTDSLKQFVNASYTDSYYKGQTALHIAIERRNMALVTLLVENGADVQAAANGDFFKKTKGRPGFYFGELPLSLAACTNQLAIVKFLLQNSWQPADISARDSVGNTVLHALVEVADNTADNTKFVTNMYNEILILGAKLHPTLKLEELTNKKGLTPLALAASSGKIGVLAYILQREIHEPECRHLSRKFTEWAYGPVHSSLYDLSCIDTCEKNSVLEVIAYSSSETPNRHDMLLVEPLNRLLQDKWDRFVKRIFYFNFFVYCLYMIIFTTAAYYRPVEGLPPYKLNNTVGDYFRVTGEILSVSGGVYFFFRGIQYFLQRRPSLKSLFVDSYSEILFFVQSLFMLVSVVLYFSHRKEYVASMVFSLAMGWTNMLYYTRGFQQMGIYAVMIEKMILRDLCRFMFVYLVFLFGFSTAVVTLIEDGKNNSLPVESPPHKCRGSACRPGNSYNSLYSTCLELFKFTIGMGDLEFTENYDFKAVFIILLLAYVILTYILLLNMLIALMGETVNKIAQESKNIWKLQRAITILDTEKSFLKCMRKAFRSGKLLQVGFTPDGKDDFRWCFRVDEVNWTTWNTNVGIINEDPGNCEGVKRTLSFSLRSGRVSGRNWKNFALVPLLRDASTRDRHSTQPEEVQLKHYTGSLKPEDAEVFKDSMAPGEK
T1 sequence (O35433 whole entry): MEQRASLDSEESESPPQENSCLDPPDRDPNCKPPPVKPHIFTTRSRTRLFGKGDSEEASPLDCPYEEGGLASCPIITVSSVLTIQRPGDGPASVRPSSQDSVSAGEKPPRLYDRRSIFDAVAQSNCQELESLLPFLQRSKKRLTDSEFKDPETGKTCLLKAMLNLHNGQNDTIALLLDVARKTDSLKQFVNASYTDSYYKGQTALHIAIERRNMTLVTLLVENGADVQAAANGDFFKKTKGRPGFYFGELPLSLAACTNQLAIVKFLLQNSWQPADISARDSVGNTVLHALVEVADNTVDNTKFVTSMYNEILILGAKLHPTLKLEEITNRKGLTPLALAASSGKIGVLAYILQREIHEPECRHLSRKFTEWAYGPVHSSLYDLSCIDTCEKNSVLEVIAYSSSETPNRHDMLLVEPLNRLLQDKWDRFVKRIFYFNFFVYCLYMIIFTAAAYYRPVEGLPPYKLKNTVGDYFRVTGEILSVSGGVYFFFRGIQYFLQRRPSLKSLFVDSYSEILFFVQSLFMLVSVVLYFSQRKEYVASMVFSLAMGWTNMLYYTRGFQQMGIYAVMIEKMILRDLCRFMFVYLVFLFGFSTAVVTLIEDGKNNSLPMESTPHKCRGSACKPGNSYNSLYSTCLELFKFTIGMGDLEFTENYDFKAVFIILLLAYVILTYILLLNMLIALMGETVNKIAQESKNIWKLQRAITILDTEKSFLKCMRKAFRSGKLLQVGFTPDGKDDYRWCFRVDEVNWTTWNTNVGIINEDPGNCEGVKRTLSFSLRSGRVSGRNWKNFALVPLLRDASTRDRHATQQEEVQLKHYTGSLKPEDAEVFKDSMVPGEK

| Compound | inhibition at 0.01 µM (TRPV1 receptor; DRG neuron, compound 10 nM) [%] | % P (percentage of protection) (TRPV1 receptors) | % inhibition in DRG patch (TRPV1 receptor; compound 1 nM) |
| --- | --- | --- | --- |
| O=C(Nc1ccc2c(c1)NCCC2)c1cc2cc(F)ccc2n1Cc1cccc(F)c1 [Compound 14, N-(1,2,3,4-tetrahydroquinol-7-yl)-5-fluoro-1-[(3-fluorophenyl)methyl]-1H-indole-2-carboxamide] | 38 | 46% - (1 h) |  |
| O=C1CCc2ccc(NC(=O)c3cc4cc(F)ccc4n3Cc3cccc(F)c3)cc2N1 [Compound 20, N-(1H-2-oxo-3,4-dihydroquinol-7-yl)-5-fluoro-1-[(3-fluorophenyl)methyl]-1H-indole-2-carboxamide] |  | 26% - (1 h) | 45% (1 nM) |

Source: patent US7557134B2, “N-(heteroaryl)-1H-indole-2-carboxamide derivatives and their use as vanilloid TRPV1 receptor ligands” (Sanofi-Aventis, priority 2005, dated 2009)
